From PubChem BioAssay AID330 (DTP/NCI, 2004) come the findings set out here.

“And” between values parts separate entries of the source, which are not always exact repeats. Equal entries are not always repeated. Inconclusive results and toxic doses are left out.

This assay has as its system P388 leukemia ip, CD2F1 mice, survival T/C. The experiment in a line: NCI In Vivo Anticancer Drug Screen. Data for tumor model P388 Leukemia (intraperitoneal) in CD2F1 (CDF1) mice. The conditions noted are these: endpoint: median survival time, higher = longer survival. Summed up: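 Mice carrying the transplanted tumor received test compound or vehicle. Survival was recorded in each group, and the value is the treated-group measurement divided by that of the vehicle-treated control group.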

[1] abbreviates: dose: 50.0 mg/kg/injection, schedule: Q01DX009 (ip), vehicle: saline with Tween-80.
Where [2] appears, read: dose: 100.0 mg/kg/injection, schedule: Q01DX009 (ip), vehicle: saline with Tween-80.
The mark [3] stands for this setting: dose: 200.0 mg/kg/injection, schedule: Q01DX009 (ip), vehicle: saline with Tween-80.
The mark [4] stands for this setting: dose: 100.0 mg/kg/injection, schedule: Q04DX003 (ip), vehicle: Klucel (hydroxypropylcellulose) (HPC).
Where [5] appears, read: dose: 200.0 mg/kg/injection, schedule: Q04DX003 (ip), vehicle: Klucel (hydroxypropylcellulose) (HPC).
[6] abbreviates: dose: 50.0 mg/kg/injection, schedule: Q01DX009 (ip), vehicle: saline.
Where [7] appears, read: dose: 100.0 mg/kg/injection, schedule: Q01DX009 (ip), vehicle: saline.
[8] abbreviates: dose: 400.0 mg/kg/injection, schedule: Q04DX003 (ip), vehicle: Klucel (hydroxypropylcellulose) (HPC).
[9] abbreviates: dose: 50.0 mg/kg/injection, schedule: Q01DX005 (ip), vehicle: Klucel (hydroxypropylcellulose) (HPC).
[10] abbreviates: dose: 100.0 mg/kg/injection, schedule: Q01DX005 (ip), vehicle: Klucel (hydroxypropylcellulose) (HPC).
[11] abbreviates: dose: 200.0 mg/kg/injection, schedule: Q01DX005 (ip), vehicle: Klucel (hydroxypropylcellulose) (HPC).
[12] abbreviates: dose: 50.0 mg/kg/injection, schedule: Q01DX009 (ip), vehicle: Klucel (hydroxypropylcellulose) (HPC).
Where [13] appears, read: dose: 100.0 mg/kg/injection, schedule: Q01DX009 (ip), vehicle: Klucel (hydroxypropylcellulose) (HPC).
The mark [14] stands for this setting: dose: 200.0 mg/kg/injection, schedule: Q01DX009 (ip), vehicle: Klucel (hydroxypropylcellulose) (HPC).

Regarding `O=C1c2ccccc2C(O)(C#Cc2ccccc2)c2c1oc1ccc3ccccc3c21` (stereo unspecified), the T/C by setting is: under setting [1], 100 % of control; under setting [2], 92 % of control; under setting [3], 87 % of control.
On to `Cc1ccc(S(=O)(=O)/C=C/C(=O)c2ccc3ccccc3c2)cc1`, for which the T/C by setting is: (dose: 100.0 mg/kg/injection, schedule: Q04DX003 (ip), vehicle: saline) 103 % of control; (dose: 200.0 mg/kg/injection, schedule: Q04DX003 (ip), vehicle: saline) 103 % of control; (dose: 400.0 mg/kg/injection, schedule: Q04DX003 (ip), vehicle: saline) 100 % of control.
As to `C[S+](CCSc1ccccc1)CCSc1ccccc1`, the T/C reads like this: (dose: 7.5 mg/kg/injection, schedule: Q01DX009 (ip), vehicle: saline with Tween-80) 90 % of control; (dose: 15.0 mg/kg/injection, schedule: Q01DX009 (ip), vehicle: saline with Tween-80) 101 % of control; (dose: 30.0 mg/kg/injection, schedule: Q01DX009 (ip), vehicle: saline with Tween-80) 99 % of control.
For `CCN(CC)c1ccc(/C=N\NC(=O)C(=O)N/N=C\c2ccc(N(CC)CC)cc2)cc1`, the T/C is, setting by setting: (dose: 50.0 mg/kg/injection, schedule: Q01DX005 (ip), vehicle: saline with Tween-80) 87 % of control; (dose: 100.0 mg/kg/injection, schedule: Q01DX005 (ip), vehicle: saline with Tween-80) 87 % of control; (dose: 200.0 mg/kg/injection, schedule: Q01DX005 (ip), vehicle: saline with Tween-80) 89 % of control.
Consider `CCOP(=O)(O)C1CCCC(C)[N-]1.CCOP(=O)(O)C1CCCC(C)[N-]1.[Mn+2]` (stereo unspecified), for which the T/C is, setting by setting: under setting [4], 100 % of control; under setting [5], 111 % of control.
Take `COc1ccc(-c2c(O)c3cccnc3[nH]c2=O)cc1`: the T/C under setting [6] is 102 % of control; the T/C under setting [7] was 104 % of control; the T/C (dose: 200.0 mg/kg/injection, schedule: Q01DX009 (ip), vehicle: saline) was 102 % of control.
With `Nc1nc(-c2cc(-c3cccc4ccccc34)nc(N)n2)cc(-c2cccc3ccccc23)n1`, the T/C is 101 % of control (dose: 60.0 mg/kg/injection, schedule: Q01DX005 (ip), vehicle: suspension in saline); 100 % of control (dose: 120.0 mg/kg/injection, schedule: Q01DX005 (ip), vehicle: suspension in saline); 105 % of control (dose: 240.0 mg/kg/injection, schedule: Q01DX005 (ip), vehicle: suspension in saline).
On to `O=C(O)c1cccc2c1C1CCC2c2cccc(C(=O)O)c21`, for which the T/C runs as follows: under setting [4], 108 % of control; under setting [5], 107 % of control; under setting [8], 106 % of control.
Take `NC(=S)c1ccccc1N=Cc1cccs1`: the T/C was 100 % of control (dose: 100.0 mg/kg/injection, schedule: Q01DX001 (ip), vehicle: saline); 102 % of control (dose: 200.0 mg/kg/injection, schedule: Q01DX001 (ip), vehicle: saline); 98 % of control (dose: 400.0 mg/kg/injection, schedule: Q01DX001 (ip), vehicle: saline).
Turning to `CC[n+]1ccc2c(C)c3[nH]c4ccc(O)cc4c3c(C)c2c1`, the T/C reads like this: (dose: 1.56 mg/kg/injection, schedule: Q04DX003 (ip), vehicle: saline) 165 % of control; (dose: 3.12 mg/kg/injection, schedule: Q04DX003 (ip), vehicle: saline) 192 % of control; (dose: 6.25 mg/kg/injection, schedule: Q04DX003 (ip), vehicle: saline) 171 % of control and 223 % of control; (dose: 12.5 mg/kg/injection, schedule: Q04DX003 (ip), vehicle: saline) 103 % of control and 90 % of control; (dose: 25.0 mg/kg/injection, schedule: Q04DX003 (ip), vehicle: saline) 90 % of control; (dose: 50.0 mg/kg/injection, schedule: Q04DX003 (ip), vehicle: saline) 90 % of control.
Take `C[CH2][Sn]([CH2]C)([n]1cnc2ccccc21)[n]1cnc2ccccc21`: the T/C is, setting by setting: (dose: 1.56 mg/kg/injection, schedule: Q01DX005 (ip), vehicle: Klucel (hydroxypropylcellulose) (HPC)) 120 % of control; (dose: 3.12 mg/kg/injection, schedule: Q01DX005 (ip), vehicle: Klucel (hydroxypropylcellulose) (HPC)) 123 % of control; (dose: 6.25 mg/kg/injection, schedule: Q01DX005 (ip), vehicle: Klucel (hydroxypropylcellulose) (HPC)) 109 % of control and 122 % of control.
For the molecule `O=C(NCc1ccco1)Nc1ccccc1[N+](=O)[O-]`, the T/C by setting is: under setting [9], 96 % of control; under setting [10], 95 % of control; under setting [11], 95 % of control.
Take `CCCCCCCCCC[N+]1([O-])CCOCC1`: the T/C was 100 % of control under setting [6] and 89 % of control under setting [7].
As to `CC1(C)CCCC2(C)OC(=O)C=C12` (stereo unspecified), the T/C reads like this: (dose: 3.12 mg/kg/injection, schedule: Q01DX005 (ip), vehicle: distilled water + Tween-80) 105 % of control; (dose: 6.25 mg/kg/injection, schedule: Q01DX005 (ip), vehicle: distilled water + Tween-80) 104 % of control; (dose: 12.5 mg/kg/injection, schedule: Q01DX005 (ip), vehicle: distilled water + Tween-80) 94 % of control.
For `CC(C)NC(=O)OCCS(=O)c1c(Cl)c(Cl)nn1C` (stereo unspecified), the T/C is, setting by setting: (dose: 60.0 mg/kg/injection, schedule: Q01DX005 (ip), vehicle: saline with Tween-80) 117 % of control; (dose: 120.0 mg/kg/injection, schedule: Q01DX005 (ip), vehicle: saline with Tween-80) 109 % of control.
Turning to `CN1C(=O)C(n2[nH]c(=O)n(-c3ccc(Cl)cc3)c2=O)C(=O)N(C)C1=O`, the T/C runs as follows: under setting [12], 100 % of control; under setting [13], 100 % of control; under setting [14], 97 % of control.
Consider `CCCCCCCCCCCCCOC(=O)c1ccc(O)cc1`, for which the T/C reads like this: under setting [1], 98 % of control; under setting [2], 94 % of control; under setting [3], 88 % of control.
As to `CCN(CC)CCNC(=O)c1nn(C)c(=O)[nH]c1=O`, the T/C is 108 % of control under setting [9], 119 % of control under setting [10] and 99 % of control under setting [11].
As for `CCSC(=S)NC#N`, the T/C under setting [12] was 109 % of control, the T/C under setting [13] was 93 % of control and the T/C under setting [14] is 88 % of control.
Turning to `CCC(=O)n1c(Cl)c(C=O)c2ccccc21`, the T/C (dose: 100.0 mg/kg/injection, schedule: Q01DX001 (ip), vehicle: Klucel (hydroxypropylcellulose) (HPC)) is 99 % of control; the T/C (dose: 200.0 mg/kg/injection, schedule: Q01DX001 (ip), vehicle: Klucel (hydroxypropylcellulose) (HPC)) is 102 % of control; the T/C (dose: 400.0 mg/kg/injection, schedule: Q01DX001 (ip), vehicle: Klucel (hydroxypropylcellulose) (HPC)) is 94 % of control.
As for `CCOC(=C[P+](c1ccccc1)(c1ccccc1)c1ccccc1)OCC`, the T/C (dose: 0.39 mg/kg/injection, schedule: Q01DX005 (ip), vehicle: water) was 98 % of control and 103 % of control; the T/C (dose: 0.78 mg/kg/injection, schedule: Q01DX005 (ip), vehicle: water) is 107 % of control and 96 % of control; the T/C (dose: 1.56 mg/kg/injection, schedule: Q01DX005 (ip), vehicle: water) was 102 % of control and 110 % of control and 121 % of control; the T/C (dose: 3.12 mg/kg/injection, schedule: Q01DX005 (ip), vehicle: water) is 113 % of control and 118 % of control and 124 % of control; the T/C (dose: 6.25 mg/kg/injection, schedule: Q01DX005 (ip), vehicle: water) is 109 % of control.
Turning to `Cc1ccccc1N1C(=O)OC(C)C1=O` (stereo unspecified), the T/C is, setting by setting: (dose: 100.0 mg/kg/injection, schedule: Q01DX001 (ip), vehicle: saline with Tween-80) 97 % of control; (dose: 200.0 mg/kg/injection, schedule: Q01DX001 (ip), vehicle: saline with Tween-80) 109 % of control; (dose: 400.0 mg/kg/injection, schedule: Q01DX001 (ip), vehicle: saline with Tween-80) 94 % of control.
Consider `O=C1C=C(c2ccccc2)CS1`, for which the T/C reads like this: under setting [4], 101 % of control; under setting [5], 101 % of control; under setting [8], 101 % of control.
